Tests used:
[1] = molecular target: RAF proto-oncogene serine/threonine-protein kinase (Homo sapiens, UniProt P04049); experiment: Inhibition of human c-RAF at 10 uM using MEK1 as substrate in presence of [33P]ATP by Hotspot assay relative to control
T47D = experiment: Growth inhibition of human T47D cells incubated for 48 hrs by sulforhodamine B assay; type: functional
PC-3 = experiment: Growth inhibition of human PC3 cells incubated for 48 hrs by sulforhodamine B assay; type: functional; conditions: PC-3, 48 h
BT-549 = experiment: Growth inhibition of human BT549 cells incubated for 48 hrs by sulforhodamine B assay; type: functional; conditions: BT-549, 48 h
ACHN = experiment: Growth inhibition of human ACHN cells incubated for 48 hrs by sulforhodamine B assay; type: functional
LOX IMVI = experiment: Growth inhibition of human LOXIMVI cells incubated for 48 hrs by sulforhodamine B assay; type: functional
SNB-75 = experiment: Growth inhibition of human SNB75 cells incubated for 48 hrs by sulforhodamine B assay; type: functional; conditions: SNB-75, 48 h
KM12 = experiment: Growth inhibition of human KM12 cells incubated for 48 hrs by sulforhodamine B assay; type: functional; conditions: KM12, 48 h
HOP-92 = experiment: Growth inhibition of human HOP92 cells incubated for 48 hrs by sulforhodamine B assay; type: functional; conditions: HOP-92, 48 h
MDA-MB-231 = experiment: Growth inhibition of human MDA-MB-231 cells incubated for 48 hrs by sulforhodamine B assay; type: functional; conditions: MDA-MB-231, 48 h
HT-29 = experiment: Growth inhibition of human HT-29 cells incubated for 48 hrs by sulforhodamine B assay; type: functional; conditions: HT-29, 48 h
A549 = experiment: Growth inhibition of human A549/ATCC cells incubated for 48 hrs by sulforhodamine B assay; type: functional; conditions: A549, 48 h
SW-620 = experiment: Growth inhibition of human SW620 cells incubated for 48 hrs by sulforhodamine B assay; type: functional; conditions: SW-620, 48 h
786-0 = experiment: Growth inhibition of human 786-0 cells incubated for 48 hrs by sulforhodamine B assay; type: functional; conditions: 786-0, 48 h
SF-539 = experiment: Growth inhibition of human SF539 cells incubated for 48 hrs by sulforhodamine B assay; type: functional; conditions: SF-539, 48 h
OVCAR-3 = experiment: Growth inhibition of human OVCAR3 cells incubated for 48 hrs by sulforhodamine B assay; type: functional; conditions: OVCAR-3, 48 h
U-251 = experiment: Growth inhibition of human U251 cells incubated for 48 hrs by sulforhodamine B assay; type: functional; conditions: U-251, 48 h
DU-145 = experiment: Growth inhibition of human DU145 cells incubated for 48 hrs by sulforhodamine B assay; type: functional; conditions: DU-145, 48 h
CCRF-CEM = experiment: Growth inhibition of human CCRF-CEM cells incubated for 48 hrs by sulforhodamine B assay; type: functional
UACC-257 = experiment: Growth inhibition of human UACC257 cells incubated for 48 hrs by sulforhodamine B assay; type: functional; conditions: UACC-257, 48 h
TK-10 = experiment: Growth inhibition of human TK10 cells incubated for 48 hrs by sulforhodamine B assay; type: functional; conditions: TK-10, 48 h
UO-31 = experiment: Growth inhibition of human UO31 cells incubated for 48 hrs by sulforhodamine B assay; type: functional; conditions: UO-31, 48 h
OVCAR-8 = experiment: Growth inhibition of human OVCAR8 cells incubated for 48 hrs by sulforhodamine B assay; type: functional; conditions: OVCAR-8, 48 h
SK-MEL-28 = experiment: Growth inhibition of human SK-MEL-28 cells incubated for 48 hrs by sulforhodamine B assay; type: functional; conditions: SK-MEL-28, 48 h
HCT-116 = experiment: Growth inhibition of human HCT116 cells incubated for 48 hrs by sulforhodamine B assay; type: functional; conditions: HCT-116, 48 h
K562 = experiment: Growth inhibition of human K562 cells incubated for 48 hrs by sulforhodamine B assay; type: functional; conditions: K562, 48 h
SF-295 = experiment: Growth inhibition of human SF295 cells incubated for 48 hrs by sulforhodamine B assay; type: functional; conditions: SF-295, 48 h
SR = experiment: Growth inhibition of human SR cells incubated for 48 hrs by sulforhodamine B assay; type: functional
RXF 393 = experiment: Growth inhibition of human RXF393 cells incubated for 48 hrs by sulforhodamine B assay; type: functional; conditions: RXF 393, 48 h
NCI-H23 = experiment: Growth inhibition of human NCI-H23 cells incubated for 48 hrs by sulforhodamine B assay; type: functional; conditions: NCI-H23, 48 h
RPMI-8226 = experiment: Growth inhibition of human RPMI8226 cells incubated for 48 hrs by sulforhodamine B assay; type: functional; conditions: RPMI-8226, 48 h
HL-60(TB) = experiment: Growth inhibition of human HL-60(TB) cells incubated for 48 hrs by sulforhodamine B assay; type: functional; conditions: HL-60, 48 h
[2] = read-out: LC50 (the source's name)

Sequence of RAF proto-oncogene serine/threonine-protein kinase (P04049 whole entry): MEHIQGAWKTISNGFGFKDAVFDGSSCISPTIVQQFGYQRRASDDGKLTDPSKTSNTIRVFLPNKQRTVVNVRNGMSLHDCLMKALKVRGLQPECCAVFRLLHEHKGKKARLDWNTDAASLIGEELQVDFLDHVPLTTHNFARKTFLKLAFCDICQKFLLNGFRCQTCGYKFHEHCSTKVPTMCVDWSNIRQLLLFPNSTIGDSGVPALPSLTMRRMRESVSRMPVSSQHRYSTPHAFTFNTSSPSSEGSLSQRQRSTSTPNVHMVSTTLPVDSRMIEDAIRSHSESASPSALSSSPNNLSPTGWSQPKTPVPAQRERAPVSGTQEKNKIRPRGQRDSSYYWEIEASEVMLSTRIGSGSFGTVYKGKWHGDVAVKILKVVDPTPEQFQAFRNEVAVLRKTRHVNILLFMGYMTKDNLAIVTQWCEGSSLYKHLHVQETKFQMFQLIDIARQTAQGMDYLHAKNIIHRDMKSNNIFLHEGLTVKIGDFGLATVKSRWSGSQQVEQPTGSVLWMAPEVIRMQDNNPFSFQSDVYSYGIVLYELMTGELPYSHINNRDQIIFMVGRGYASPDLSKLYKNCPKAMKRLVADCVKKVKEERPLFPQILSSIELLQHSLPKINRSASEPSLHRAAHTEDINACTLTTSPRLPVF

COc1cc2cc(Oc3ccc(NC(=O)Nc4ccc(Cl)c(Cl)c4)cc3)c(C)nc2cc1OC
inhibition [1]: 97.8%
GI50 (T47D): 2700 nM
TGI (T47D): 10.1 µM
CC50 (T47D; [2]): 84.7 µM
GI50 (PC-3): 1530 nM
TGI (PC-3): 5.13 µM
CC50 (PC-3; [2]): 21.3 µM
GI50 (BT-549): 2400 nM
TGI (BT-549): 11.7 µM
CC50 (BT-549; [2]): 51.6 µM
GI50 (ACHN): 3000 nM
TGI (ACHN): 12.1 µM
CC50 (ACHN; [2]): 69.1 µM
GI50 (LOX IMVI): 3.45 µM
TGI (LOX IMVI): 14.6 µM
CC50 (LOX IMVI; [2]): 38.2 µM
GI50 (SNB-75): 2330 nM
TGI (SNB-75): 8.28 µM
CC50 (SNB-75; [2]): 66.1 µM
GI50 (KM12): 3.22 µM
TGI (KM12): 13.4 µM
CC50 (KM12; [2]): 74.7 µM
GI50 (HOP-92): 2040 nM
LC50 (HOP-92): 14.2 µM
TGI (HOP-92): 4.88 µM
GI50 (MDA-MB-231): 2460 nM
TGI (MDA-MB-231): 12 µM
CC50 (MDA-MB-231; [2]): 34.6 µM
GI50 (HT-29): 2340 nM
TGI (HT-29): 4.89 µM
CC50 (HT-29; [2]): 10.6 µM
GI50 (A549): 1640 nM
TGI (A549): 7.61 µM
CC50 (A549; [2]): 28.3 µM
GI50 (SW-620): 4.24 µM
LC50 (SW-620): 60.9 µM
TGI (SW-620): 15.6 µM
GI50 (786-0): 3.64 µM
TGI (786-0): 17.7 µM
CC50 (786-0; [2]): 65.2 µM
GI50 (SF-539): 5.18 µM
TGI (SF-539): 22.3 µM
CC50 (SF-539; [2]): 88.8 µM
GI50 (OVCAR-3): 2340 nM
TGI (OVCAR-3): 6.19 µM
CC50 (OVCAR-3; [2]): 22.2 µM
GI50 (U-251): 2190 nM
TGI (U-251): 7.26 µM
CC50 (U-251; [2]): 26.5 µM
GI50 (DU-145): 4.27 µM
TGI (DU-145): 17.1 µM
CC50 (DU-145; [2]): 68.4 µM
GI50 (CCRF-CEM): 2380 nM
TGI (CCRF-CEM): 14 µM
CC50 (CCRF-CEM; [2]): > 100 µM
GI50 (UACC-257): 2310 nM
TGI (UACC-257): 6.28 µM
CC50 (UACC-257; [2]): 24.4 µM
GI50 (TK-10): 3.46 µM
TGI (TK-10): 9.18 µM
CC50 (TK-10; [2]): 43.3 µM
GI50 (UO-31): 3.44 µM
TGI (UO-31): 12.6 µM
CC50 (UO-31; [2]): 79.6 µM
GI50 (OVCAR-8): 3.54 µM
TGI (OVCAR-8): 12.9 µM
CC50 (OVCAR-8; [2]): 36 µM
GI50 (SK-MEL-28): 3.77 µM
TGI (SK-MEL-28): 14.7 µM
CC50 (SK-MEL-28; [2]): 51.2 µM
GI50 (HCT-116): 2260 nM
LC50 (50% lethal concentration) (HCT-116): 32.6 µM
TGI (HCT-116): 10.5 µM
GI50 (K562): 3.32 µM
LC50 (concentration killing 50% of cells) (K562): > 100 µM
TGI (K562): > 100 µM
GI50 (SF-295): 1960 nM
TGI (SF-295): 6.08 µM
CC50 (SF-295; [2]): 67.7 µM
GI50 (SR): 3.1 µM
TGI (SR): 10.3 µM
CC50 (SR; [2]): > 100 µM
GI50 (RXF 393): 4.28 µM
TGI (RXF 393): 16.7 µM
CC50 (RXF 393; [2]): 65.7 µM
GI50 (NCI-H23): 3.36 µM
TGI (NCI-H23): 15.9 µM
CC50 (NCI-H23; [2]): 76.3 µM
GI50 (RPMI-8226): 1620 nM
LC50 (lethal concentration, 50% cell kill) (RPMI-8226): > 100 µM
TGI (RPMI-8226): 5.73 µM
GI50 (HL-60(TB)): 2760 nM
TGI (HL-60(TB)): 6.75 µM
CC50 (HL-60(TB); [2]): > 100 µM
